Measurements taken from article PMC3753754, “Andrographis paniculata Extract and Andrographolide Modulate the Hepatic Drug Metabolism System and Plasma Tolbutamide Concentrations in Rats” (Evidence-based Complementary and Alternative Medicine : eCAM, 2013).
Marks after values point to notes of the source that are not given here.

Columns and labels:
[1] = biological target: T1, aryl hydrocarbon receptor (AhR) (Rattus norvegicus, UniProt P41738); assay: EMSA of liver nuclear protein binding to XRE consensus sequence; assay type: in vivo; settings: APE or andrographolide for 5 days
T1 construct: from tissue; host or cells: crude liver nuclear extract of treated Sprague-Dawley rats
T1 sequence (P41738 10-853): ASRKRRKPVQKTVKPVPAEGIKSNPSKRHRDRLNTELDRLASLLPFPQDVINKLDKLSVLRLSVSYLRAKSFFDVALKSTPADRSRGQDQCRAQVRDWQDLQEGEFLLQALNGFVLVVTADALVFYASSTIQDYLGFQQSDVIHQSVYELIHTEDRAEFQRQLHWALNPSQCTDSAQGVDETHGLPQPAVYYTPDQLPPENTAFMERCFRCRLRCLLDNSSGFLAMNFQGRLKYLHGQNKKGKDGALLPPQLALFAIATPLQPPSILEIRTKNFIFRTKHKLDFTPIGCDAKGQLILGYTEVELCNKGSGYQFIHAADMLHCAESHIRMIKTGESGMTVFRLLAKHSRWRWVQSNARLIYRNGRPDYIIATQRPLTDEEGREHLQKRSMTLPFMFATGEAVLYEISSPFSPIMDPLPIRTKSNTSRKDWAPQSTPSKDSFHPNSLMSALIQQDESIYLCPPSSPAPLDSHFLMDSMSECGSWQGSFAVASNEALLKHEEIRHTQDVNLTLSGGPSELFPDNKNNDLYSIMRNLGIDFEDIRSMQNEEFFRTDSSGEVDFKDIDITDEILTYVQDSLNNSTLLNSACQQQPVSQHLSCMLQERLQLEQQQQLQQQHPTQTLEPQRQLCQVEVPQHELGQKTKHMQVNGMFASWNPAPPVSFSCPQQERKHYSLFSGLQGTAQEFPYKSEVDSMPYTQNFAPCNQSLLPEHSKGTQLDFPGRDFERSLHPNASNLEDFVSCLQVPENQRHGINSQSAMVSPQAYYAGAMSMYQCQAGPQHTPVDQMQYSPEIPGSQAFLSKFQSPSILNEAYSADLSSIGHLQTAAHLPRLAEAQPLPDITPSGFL
T1 sequence (P41739 whole entry partner): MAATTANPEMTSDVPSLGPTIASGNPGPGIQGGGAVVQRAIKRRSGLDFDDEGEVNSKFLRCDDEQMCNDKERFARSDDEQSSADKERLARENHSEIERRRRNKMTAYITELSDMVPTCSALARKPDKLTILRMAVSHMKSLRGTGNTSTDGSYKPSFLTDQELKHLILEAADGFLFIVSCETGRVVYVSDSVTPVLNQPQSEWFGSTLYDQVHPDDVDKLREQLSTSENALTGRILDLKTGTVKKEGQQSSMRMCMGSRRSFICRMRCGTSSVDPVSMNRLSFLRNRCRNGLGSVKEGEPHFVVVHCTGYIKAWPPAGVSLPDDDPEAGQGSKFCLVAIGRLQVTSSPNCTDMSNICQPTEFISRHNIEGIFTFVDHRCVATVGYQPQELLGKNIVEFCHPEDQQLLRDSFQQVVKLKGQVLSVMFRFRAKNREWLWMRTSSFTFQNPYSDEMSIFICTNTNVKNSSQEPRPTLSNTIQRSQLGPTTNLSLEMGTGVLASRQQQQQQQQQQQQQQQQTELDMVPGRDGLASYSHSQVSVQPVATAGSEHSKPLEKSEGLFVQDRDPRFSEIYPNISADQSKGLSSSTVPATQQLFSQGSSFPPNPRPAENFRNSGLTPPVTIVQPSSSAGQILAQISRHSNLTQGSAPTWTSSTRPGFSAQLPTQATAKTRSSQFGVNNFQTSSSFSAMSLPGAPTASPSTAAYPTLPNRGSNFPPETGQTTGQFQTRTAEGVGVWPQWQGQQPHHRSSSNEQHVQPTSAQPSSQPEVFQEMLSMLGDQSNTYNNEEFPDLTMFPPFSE
Experimental: Nuclear proteins of liver tissues were extracted as described by Tian et al. with some modifications. Briefly, 0.1 g of liver was homogenized (1 : 9, w/v) with 0.9 mL of ice-cold 10 mM HEPES buffer (pH 7.9) containing 10 mM KCl, 1 mM MgCl2, 0.1 mM EDTA, 0.5 mM dithiothreitol, 0.5 mM PMSF, 4 μg/mL leupeptin, and 20 μg/mL aprotinin. The homogenates were placed in an ice bath for 15 min and then centrifuged at 600 ×g for 10 min. Then, 100 μL of 10% Nonidet P-40 was added to the supernatant, and the samples were allowed to sit in an ice bath for 10 min. The supernatant was centrifuged at 5,000 ×g for 5 min. The pellet, containing crude nuclei, was resuspended in 100 μL of hypertonic buffer containing 10 mM HEPES, 400 mM KCl, 1 mM MgCl2, 0.1 mM EDTA, 0.5 mM dithiothreitol, 4 μg/mL leupeptin, 20 μg/mL aprotinin, 25% glycerol, and 0.5 mM PMSF at 4°C for 45 min. Nuclear proteins were then collected by centrifugation at 12,000 ×g for 15 min.
EMSA was performed according to the method reported previously. The LightShift Chemiluminescent EMSA Kit (Pierce, Rockford, IL) and synthetic biotin-labeled double-stranded consensus oligonucleotides of DR4 (5′-[…]-3′) and xenobiotic response element (XRE) (forward: 5′-[…]-3′) were used to measure pregnane X receptor (PXR) and aryl hydrocarbon receptor (AhR) nuclear protein-DNA-binding activity. […]

CYP2E1 = assay: p-Nitrophenol 6-hydroxylation in liver microsomes of treated rats; assay type: in vivo; settings: rat liver microsomes; oral 2 g/kg APE or 50 mg/kg AND daily for 5 days
Experimental: (§1) Liver was homogenized (1 : 4, w/v) in an ice-cold potassium phosphate buffer (pH 7.4) containing 7.4 mM K2HPO4, 2.6 mM KH2PO4, 1.15% KCl, and 1 mM phenylmethylsulfonyl fluoride (PMSF). Tissue homogenates were centrifuged at 10,000 ×g for 30 min at 4°C. The resulting supernatant was then centrifuged at 105,000 ×g for 1 h at 4°C. The microsomes thus obtained were washed several times to get rid of possible tolbutamide contamination and this can avoid tolbutamide interference of CYP activity, and the microsomes were then suspended in potassium phosphate buffer (pH 7.7) containing 7.5 mM K2HPO4, 14.5 mM KH2PO4, and 1 mM EDTA. […] Metabolites of each CYP enzyme reaction were determined by LC/MS as reported previously. The contents of total CYP and cytochrome b5 were quantified by the method of Omura and Sato [29]. Enzyme activity is expressed as picomoles of metabolite formed per minute per milligram of protein. The NADPH-CYP reductase activity was measured as described by Phillips and Langdon with the use of cytochrome c as the substrate. The microsomal protein concentration was determined by using a Coomassie Plus protein assay kit (Pierce, Rockford, IL, USA).

CYP3A = assay: Testosterone 6β-hydroxylation in liver microsomes of treated rats; assay type: in vivo; settings: rat liver microsomes; oral 2 g/kg APE or 50 mg/kg AND daily for 5 days
Experimental: as §1

CYP2C = assay: Diclofenac 4-hydroxylation in liver microsomes of treated rats; assay type: in vivo; settings: rat liver microsomes; oral 2 g/kg APE or 50 mg/kg AND daily for 5 days
Experimental: as §1

[2] = Plasma aminotransferases (AST, ALT) of treated rats; assay type: in vivo, Sprague-Dawley rats
Experimental: All animals were killed by exsanguination via the abdominal aorta while under carbon dioxide (CO2/O2, 70%/30%) anesthesia. Heparin was used as the anticoagulant. Plasma was separated from the blood by centrifugation (1750 ×g) at 4°C for 20 min. The liver from each animal was excised, weighed, and stored at −80°C. This research has received ethical approval from the institutional animal ethics committee of China Medical University, Taichung, Taiwan.
Plasma glucose was determined by use of enzymatic kits purchased from Audit Diagnostics Co. (Cork, Ireland). Plasma aspartate aminotransferase (AST) and alanine aminotransferase (ALT) activities were measured by using commercial kits purchased from Randox Laboratories (Antrim, UK).

[3] = rats, oral 2 g/kg APE or 50 mg/kg AND daily for 5 days, mean ± SD, n = 5

C=C1CC[C@@H]2[C@](C)(CO)[C@H](O)CC[C@@]2(C)[C@@H]1C/C=C1/C(=O)OC[C@H]1O [andrographolide, Andrographolide]
Binding activity of the XRE consensus sequence to nuclear protein AhR [1]: enhanced
p-Nitrophenol 6-hydroxylase (2E1) (CYP2E1): 91.1 ± 13.0^b pmol/min/mg protein
Testosterone 6β-hydroxylase (3A) (CYP3A): 1195 ± 284^b pmol/min/mg protein
Diclofenac 4-hydroxylase (2C) (CYP2C): 43.8 ± 10.5^b pmol/min/mg protein
Effect on rat liver function ([2]; 2 g/kg APE and 50 mg/kg AND, plasma AST and ALT): no deleterious effect
Plasma aminotransferases, ALT [2, 3]: 15.8 ± 8.2 U/L
Plasma aminotransferases, AST [2, 3]: 27.7 ± 4.4 U/L
